In patent US6479435B1, “Diaryl ethers and processes for their preparation and herbicidal and desiccant compositions containing them” (ISK Americas Incorporated, priority 1997, dated 2002):

Assays:
Type in all cases: in vivo
[1] = test system: upland rice (Oryza sp., var.Tebonnet, RICE); assay: Post-emerge greenhouse test, crop damage rating; conditions: 14 days after application
Outline: (§1)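 Scores use a 0 (no damage) to 100 (complete kill) scale, taken 14 days after a foliar spray. Acetone solutions with 0.25% v/v non-ionic surfactant were applied by track sprayer at 187 l/ha and 63-1000 g ai/ha to bottom-watered 2-3 leaf plants.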

[2] = test system: field corn (Zea mays L., var. Dekalb 535, CORN); assay: Post-emerge greenhouse test, crop damage rating; conditions: 14 days after application
Outline: as §1

[3] = test system: soybean (Glycine max L., var. Pella 86, SOY); assay: Post-emerge greenhouse test, crop damage rating; conditions: 14 days after application
Outline: as §1

[4] = test system: soybean (Glycine max L., var. Pella 86, SOY); assay: Pre-emerge greenhouse test, crop damage rating; conditions: 14 days after application, rating scale 0-100
Outline: (§2)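 Visual 0–100 injury rating (100 = all plants dead) taken 14 days after treatment. Rates of 125–1000 g ai/ha in acetone, 187 l/ha, were sprayed onto soil one day post-sowing; pots were surface-watered to incorporate, then bottom-watered.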

[5] = test system: upland rice (Oryza sp., var.Tebonnet, RICE); assay: Pre-emerge greenhouse test, crop damage rating; conditions: 14 days after application, rating scale 0-100
Outline: as §2

[6] = test system: field corn (Zea mays L., var. Dekalb 535, CORN); assay: Pre-emerge greenhouse test, crop damage rating; conditions: 14 days after application, rating scale 0-100
Outline: as §2

[7] = test system: common ragweed (Ambrosia artemisiifolia L., AMBEL); assay: Post-emerge greenhouse herbicide test, phytotoxicity rating; conditions: 14 days after application
Outline: as §1

[8] = test system: ivyleaf morningglory (Ipomoea hederacea, IPOHE); assay: as above; conditions: 14 days after application
Outline: as §1

[9] = test system: lambsquarters (Chenopodium album, CHEAL); assay: as above; conditions: 14 days after application
Outline: as §1

[10] = test system: barnyardgrass (Echinochloa crusgalli, ECHCG); assay: as above; conditions: 14 days after application
Outline: as §1

[11] = test system: redroot pigweed (Amaranthus retroflexus, AMARE); assay: as above; conditions: 14 days after application
Outline: as §1

[12] = test system: Johnsongrass (Sorghum halepense, SORHA); assay: as above; conditions: 14 days after application
Outline: as §1

[13] = test system: velvetleaf (Abutilon theophrasti, ABUTH); assay: as above; conditions: 14 days after application
Outline: as §1

[14] = test system: sicklepod (Cassia obtusifolia, CASOB); assay: as above; conditions: 14 days after application
Outline: as §1

[15] = test system: large crabgrass (Digitaria sanguinalis, DIGSA); assay: as above; conditions: 14 days after application
Outline: as §1

[16] = test system: green foxtail (Setaria viridis, SETVI); assay: as above; conditions: 14 days after application
Outline: as §1

[17] = test system: common ragweed (Ambrosia artemisiifolia L., AMBEL); assay: Pre-emerge greenhouse herbicide test, phytotoxicity rating; conditions: 14 days after application, rating scale 0-100
Outline: as §2

[18] = test system: ivyleaf morningglory (Ipomoea hederacea, IPOHE); assay: as above; conditions: 14 days after application, rating scale 0-100
Outline: as §2

[19] = test system: lambsquarters (Chenopodium album, CHEAL); assay: as above; conditions: 14 days after application, rating scale 0-100
Outline: as §2

[20] = test system: barnyardgrass (Echinochloa crusgalli, ECHCG); assay: as above; conditions: 14 days after application, rating scale 0-100
Outline: as §2

[21] = test system: redroot pigweed (Amaranthus retroflexus, AMARE); assay: as above; conditions: 14 days after application, rating scale 0-100
Outline: as §2

[22] = test system: Johnsongrass (Sorghum halepense, SORHA); assay: as above; conditions: 14 days after application, rating scale 0-100
Outline: as §2

[23] = test system: velvetleaf (Abutilon theophrasti, ABUTH); assay: as above; conditions: 14 days after application, rating scale 0-100
Outline: as §2

[24] = test system: sicklepod (Cassia obtusifolia, CASOB); assay: as above; conditions: 14 days after application, rating scale 0-100
Outline: as §2

[25] = test system: large crabgrass (Digitaria sanguinalis, DIGSA); assay: as above; conditions: 14 days after application, rating scale 0-100
Outline: as §2

[26] = test system: green foxtail (Setaria viridis, SETVI); assay: as above; conditions: 14 days after application, rating scale 0-100
Outline: as §2

## Cn1nc(-c2cc(Oc3ncccn3)c(Cl)cc2F)c(Cl)c1C(F)(F)F [Compound 1-7]
[1]; 63 g al/ha
  RICE crop damage rating (0-100): 100
[1]; 500 g al/ha
  RICE crop damage rating (0-100): 80
[2]; 63 g al/ha
  CORN crop damage rating (0-100): 90
[2]; 500 g al/ha
  CORN crop damage rating (0-100): 70
[3]; 63 g al/ha
  SOY crop damage rating (0-100): 100
[3]; 500 g al/ha
  SOY crop damage rating (0-100): 100
[4]; 125 g ai/ha
  crop damage rating SOY: 0
[4]; 500 g ai/ha
  crop damage rating SOY: 0
[5]; 125 g ai/ha
  crop damage rating RICE: 70
[5]; 500 g ai/ha
  crop damage rating RICE: 90
[6]; 125 g ai/ha
  crop damage rating CORN: 40
[6]; 500 g ai/ha
  crop damage rating CORN: 70
[7]; 63 g al/ha
  AMBEL phytotoxicity rating (0-100): 95
[7]; 500 g al/ha
  AMBEL phytotoxicity rating (0-100): 100
[8]; 63 g al/ha
  IPOHE phytotoxicity rating (0-100): 100
[8]; 500 g al/ha
  IPOHE phytotoxicity rating (0-100): 100
[9]; 63 g al/ha
  CHEAL phytotoxicity rating (0-100): 100
[9]; 500 g al/ha
  CHEAL phytotoxicity rating (0-100): 100
[10]; 63 g al/ha
  ECHCG phytotoxicity rating (0-100): 100
[10]; 500 g al/ha
  ECHCG phytotoxicity rating (0-100): 100
[11]; 63 g al/ha
  AMARE phytotoxicity rating (0-100): 100
[11]; 500 g al/ha
  AMARE phytotoxicity rating (0-100): 100
[12]; 63 g al/ha
  SORHA phytotoxicity rating (0-100): 90
[12]; 500 g al/ha
  SORHA phytotoxicity rating (0-100): 100
[13]; 63 g al/ha
  ABUTH phytotoxicity rating (0-100): 100
[13]; 500 g al/ha
  ABUTH phytotoxicity rating (0-100): 100
[14]; 500 g al/ha
  CASOB phytotoxicity rating (0-100): 100
[15]; 63 g al/ha
  DIGSA phytotoxicity rating (0-100): 90
[15]; 500 g al/ha
  DIGSA phytotoxicity rating (0-100): 100
[16]; 63 g al/ha
  SETVI phytotoxicity rating (0-100): 100
[16]; 500 g al/ha
  SETVI phytotoxicity rating (0-100): 100
[17]; 125 g ai/ha
  phytotoxicity rating AMBEL: 100
[17]; 500 g ai/ha
  phytotoxicity rating AMBEL: 100
[18]; 125 g ai/ha
  phytotoxicity rating IPOHE: 40
[18]; 500 g ai/ha
  phytotoxicity rating IPOHE: 70
[19]; 125 g ai/ha
  phytotoxicity rating CHEAL: 100
[19]; 500 g ai/ha
  phytotoxicity rating CHEAL: 100
[20]; 125 g ai/ha
  phytotoxicity rating ECHCG: 100
[20]; 500 g ai/ha
  phytotoxicity rating ECHCG: 100
[21]; 125 g ai/ha
  phytotoxicity rating AMARE: 100
[21]; 500 g ai/ha
  phytotoxicity rating AMARE: 100
[22]; 125 g ai/ha
  phytotoxicity rating SORHA: 100
[22]; 500 g ai/ha
  phytotoxicity rating SORHA: 100
[23]; 125 g ai/ha
  phytotoxicity rating ABUTH: 90
[23]; 500 g ai/ha
  phytotoxicity rating ABUTH: 99
[24]; 125 g ai/ha
  phytotoxicity rating CASOB: 95
[24]; 500 g ai/ha
  phytotoxicity rating CASOB: 90
[25]; 125 g ai/ha
  phytotoxicity rating DIGSA: 100
[25]; 500 g ai/ha
  phytotoxicity rating DIGSA: 100
[26]; 125 g ai/ha
  phytotoxicity rating SETVI: 100
[26]; 500 g ai/ha
  phytotoxicity rating SETVI: 100

## Cn1c(C(F)(F)F)nc(-c2cc(Oc3ncccc3[N+](=O)[O-])c(Cl)cc2F)c1Cl [Compound 2-1]
[1]; 63 g al/ha
  RICE crop damage rating (0-100): 0
[1]; 500 g al/ha
  RICE crop damage rating (0-100): 20
[2]; 63 g al/ha
  CORN crop damage rating (0-100): 15
[2]; 500 g al/ha
  CORN crop damage rating (0-100): 20
[3]; 63 g al/ha
  SOY crop damage rating (0-100): 50
[3]; 500 g al/ha
  SOY crop damage rating (0-100): 75
[4]; 125 g ai/ha
  crop damage rating SOY: 0
[4]; 500 g ai/ha
  crop damage rating SOY: 70
[5]; 125 g ai/ha
  crop damage rating RICE: 0
[5]; 500 g ai/ha
  crop damage rating RICE: 0
[6]; 125 g ai/ha
  crop damage rating CORN: 0
[6]; 500 g ai/ha
  crop damage rating CORN: 0
[7]; 63 g al/ha
  AMBEL phytotoxicity rating (0-100): 10
[7]; 500 g al/ha
  AMBEL phytotoxicity rating (0-100): 40
[8]; 63 g al/ha
  IPOHE phytotoxicity rating (0-100): 60
[8]; 500 g al/ha
  IPOHE phytotoxicity rating (0-100): 65
[9]; 63 g al/ha
  CHEAL phytotoxicity rating (0-100): 80
[9]; 500 g al/ha
  CHEAL phytotoxicity rating (0-100): 99
[10]; 63 g al/ha
  ECHCG phytotoxicity rating (0-100): 0
[10]; 500 g al/ha
  ECHCG phytotoxicity rating (0-100): 30
[11]; 63 g al/ha
  AMARE phytotoxicity rating (0-100): 90
[11]; 500 g al/ha
  AMARE phytotoxicity rating (0-100): 100
[12]; 63 g al/ha
  SORHA phytotoxicity rating (0-100): 0
[12]; 500 g al/ha
  SORHA phytotoxicity rating (0-100): 10
[13]; 63 g al/ha
  ABUTH phytotoxicity rating (0-100): 40
[13]; 500 g al/ha
  ABUTH phytotoxicity rating (0-100): 85
[14]; 63 g al/ha
  CASOB phytotoxicity rating (0-100): 0
[14]; 500 g al/ha
  CASOB phytotoxicity rating (0-100): 30
[15]; 63 g al/ha
  DIGSA phytotoxicity rating (0-100): 0
[15]; 500 g al/ha
  DIGSA phytotoxicity rating (0-100): 20
[16]; 63 g al/ha
  SETVI phytotoxicity rating (0-100): 30
[16]; 500 g al/ha
  SETVI phytotoxicity rating (0-100): 65
[17]; 125 g ai/ha
  phytotoxicity rating AMBEL: 0
[17]; 500 g ai/ha
  phytotoxicity rating AMBEL: 50
[18]; 125 g ai/ha
  phytotoxicity rating IPOHE: 10
[18]; 500 g ai/ha
  phytotoxicity rating IPOHE: 100
[19]; 125 g ai/ha
  phytotoxicity rating CHEAL: 60
[19]; 500 g ai/ha
  phytotoxicity rating CHEAL: 100
[20]; 125 g ai/ha
  phytotoxicity rating ECHCG: 0
[20]; 500 g ai/ha
  phytotoxicity rating ECHCG: 20
[21]; 125 g ai/ha
  phytotoxicity rating AMARE: 100
[21]; 500 g ai/ha
  phytotoxicity rating AMARE: 100
[22]; 125 g ai/ha
  phytotoxicity rating SORHA: 0
[22]; 500 g ai/ha
  phytotoxicity rating SORHA: 30
[23]; 125 g ai/ha
  phytotoxicity rating ABUTH: 0
[23]; 500 g ai/ha
  phytotoxicity rating ABUTH: 50
[24]; 125 g ai/ha
  phytotoxicity rating CASOB: 0
[24]; 500 g ai/ha
  phytotoxicity rating CASOB: 30
[25]; 125 g ai/ha
  phytotoxicity rating DIGSA: 0
[25]; 500 g ai/ha
  phytotoxicity rating DIGSA: 70
[26]; 125 g ai/ha
  phytotoxicity rating SETVI: 90
[26]; 500 g ai/ha
  phytotoxicity rating SETVI: 99
